From patent publication US11739098B2 (BRISTOL-MYERS SQUIBB COMPANY, priority 2017, dated 2023)
pIC50: −log10 of the molar value.

Key:
Assay type in all cases: cell-based
human TLR8 = target: T1, human TLR8 (Homo sapiens, UniProt Q9NR97); test: TLR8 inhibition reporter assay (HEK-Blue cells, SEAP reporter, R848 stimulation); conditions: HEK-Blue cells overexpressing human TLR8, SEAP reporter, R848 15.9 μM
T1 construct: host or cells: HEK-Blue cells (HEK293-derived reporter line)
T1 sequence (Q9NR97 27-1041): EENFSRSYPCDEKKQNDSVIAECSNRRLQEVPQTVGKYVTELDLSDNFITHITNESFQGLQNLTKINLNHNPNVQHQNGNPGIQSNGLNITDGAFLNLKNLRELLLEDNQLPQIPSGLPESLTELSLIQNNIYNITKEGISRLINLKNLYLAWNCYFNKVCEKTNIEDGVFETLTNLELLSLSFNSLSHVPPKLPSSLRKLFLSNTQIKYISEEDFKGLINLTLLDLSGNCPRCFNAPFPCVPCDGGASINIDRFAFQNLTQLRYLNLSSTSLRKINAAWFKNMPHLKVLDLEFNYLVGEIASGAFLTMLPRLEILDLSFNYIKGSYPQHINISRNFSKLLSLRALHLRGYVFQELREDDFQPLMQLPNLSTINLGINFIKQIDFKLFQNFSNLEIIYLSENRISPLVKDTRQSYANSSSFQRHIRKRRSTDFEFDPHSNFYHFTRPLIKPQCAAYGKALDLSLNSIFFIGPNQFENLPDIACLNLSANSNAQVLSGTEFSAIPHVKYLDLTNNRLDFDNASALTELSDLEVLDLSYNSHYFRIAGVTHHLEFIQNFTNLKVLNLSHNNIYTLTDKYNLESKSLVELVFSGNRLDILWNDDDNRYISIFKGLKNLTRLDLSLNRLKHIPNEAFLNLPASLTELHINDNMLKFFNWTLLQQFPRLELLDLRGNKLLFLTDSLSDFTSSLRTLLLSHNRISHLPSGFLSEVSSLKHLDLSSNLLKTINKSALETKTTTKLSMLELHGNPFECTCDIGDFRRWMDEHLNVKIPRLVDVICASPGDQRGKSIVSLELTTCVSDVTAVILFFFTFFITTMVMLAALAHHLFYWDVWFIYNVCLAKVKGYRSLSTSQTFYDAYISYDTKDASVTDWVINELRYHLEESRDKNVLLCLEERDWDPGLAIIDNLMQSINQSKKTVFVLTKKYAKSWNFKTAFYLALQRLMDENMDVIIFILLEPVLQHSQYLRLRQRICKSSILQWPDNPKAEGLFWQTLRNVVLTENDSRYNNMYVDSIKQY
How it was run: (§1)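 After 22 h at 37 °C, SEAP secretion was measured from human TLR7-, TLR8- or TLR9-expressing HEK-Blue reporter cells given compound (0.05 nM–50 μM) 30 min before agonist: 7.5 μM gardiquimod, 15.9 μM R848 or 5 nM ODN2006 respectively. Percent inhibition referenced to agonist-plus-DMSO and known-inhibitor wells.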

human TLR9 = target: T2, human TLR9 (Homo sapiens, UniProt Q9NR96); test: TLR9 inhibition reporter assay (HEK-Blue cells, SEAP reporter, ODN2006 stimulation); conditions: HEK-Blue cells overexpressing human TLR9, SEAP reporter, ODN2006 5 nM
T2 construct: host or cells: HEK-Blue cells (HEK293-derived reporter line)
T2 sequence (Q9NR96 26-1032): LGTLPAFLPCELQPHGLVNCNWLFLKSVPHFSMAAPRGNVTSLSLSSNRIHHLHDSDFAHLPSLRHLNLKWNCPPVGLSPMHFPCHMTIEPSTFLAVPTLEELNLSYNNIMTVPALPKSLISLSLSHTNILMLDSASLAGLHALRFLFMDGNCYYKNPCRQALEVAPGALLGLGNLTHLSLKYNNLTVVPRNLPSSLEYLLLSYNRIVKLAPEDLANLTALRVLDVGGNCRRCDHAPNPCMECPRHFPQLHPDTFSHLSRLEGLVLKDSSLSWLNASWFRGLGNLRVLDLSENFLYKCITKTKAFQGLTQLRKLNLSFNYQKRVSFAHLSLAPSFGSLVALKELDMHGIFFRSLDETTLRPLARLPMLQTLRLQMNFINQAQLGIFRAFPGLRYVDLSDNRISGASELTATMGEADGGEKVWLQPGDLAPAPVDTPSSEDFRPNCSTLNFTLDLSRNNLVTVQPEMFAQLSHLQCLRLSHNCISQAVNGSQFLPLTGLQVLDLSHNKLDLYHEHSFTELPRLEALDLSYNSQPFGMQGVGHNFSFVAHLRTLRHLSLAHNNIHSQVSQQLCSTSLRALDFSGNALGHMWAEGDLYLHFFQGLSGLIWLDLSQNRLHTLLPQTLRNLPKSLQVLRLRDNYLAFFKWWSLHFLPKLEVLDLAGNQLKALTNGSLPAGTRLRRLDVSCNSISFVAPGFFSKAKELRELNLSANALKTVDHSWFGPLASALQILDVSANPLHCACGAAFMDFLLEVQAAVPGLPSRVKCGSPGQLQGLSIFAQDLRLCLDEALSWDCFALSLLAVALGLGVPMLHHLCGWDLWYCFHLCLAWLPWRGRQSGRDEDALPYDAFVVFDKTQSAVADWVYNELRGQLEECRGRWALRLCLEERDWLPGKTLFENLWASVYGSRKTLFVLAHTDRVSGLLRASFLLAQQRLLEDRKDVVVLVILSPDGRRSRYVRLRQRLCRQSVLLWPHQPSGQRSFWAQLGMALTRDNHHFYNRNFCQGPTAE
How it was run: as §1

human TLR7 = target: T3, human TLR7 (Homo sapiens, UniProt Q9NYK1); test: TLR7 inhibition reporter assay (HEK-Blue cells, SEAP reporter, gardiquimod stimulation); conditions: HEK-Blue cells overexpressing human TLR7, SEAP reporter, gardiquimod 7.5 μM
T3 construct: host or cells: HEK-Blue cells (HEK293-derived reporter line)
T3 sequence (Q9NYK1 27-1049): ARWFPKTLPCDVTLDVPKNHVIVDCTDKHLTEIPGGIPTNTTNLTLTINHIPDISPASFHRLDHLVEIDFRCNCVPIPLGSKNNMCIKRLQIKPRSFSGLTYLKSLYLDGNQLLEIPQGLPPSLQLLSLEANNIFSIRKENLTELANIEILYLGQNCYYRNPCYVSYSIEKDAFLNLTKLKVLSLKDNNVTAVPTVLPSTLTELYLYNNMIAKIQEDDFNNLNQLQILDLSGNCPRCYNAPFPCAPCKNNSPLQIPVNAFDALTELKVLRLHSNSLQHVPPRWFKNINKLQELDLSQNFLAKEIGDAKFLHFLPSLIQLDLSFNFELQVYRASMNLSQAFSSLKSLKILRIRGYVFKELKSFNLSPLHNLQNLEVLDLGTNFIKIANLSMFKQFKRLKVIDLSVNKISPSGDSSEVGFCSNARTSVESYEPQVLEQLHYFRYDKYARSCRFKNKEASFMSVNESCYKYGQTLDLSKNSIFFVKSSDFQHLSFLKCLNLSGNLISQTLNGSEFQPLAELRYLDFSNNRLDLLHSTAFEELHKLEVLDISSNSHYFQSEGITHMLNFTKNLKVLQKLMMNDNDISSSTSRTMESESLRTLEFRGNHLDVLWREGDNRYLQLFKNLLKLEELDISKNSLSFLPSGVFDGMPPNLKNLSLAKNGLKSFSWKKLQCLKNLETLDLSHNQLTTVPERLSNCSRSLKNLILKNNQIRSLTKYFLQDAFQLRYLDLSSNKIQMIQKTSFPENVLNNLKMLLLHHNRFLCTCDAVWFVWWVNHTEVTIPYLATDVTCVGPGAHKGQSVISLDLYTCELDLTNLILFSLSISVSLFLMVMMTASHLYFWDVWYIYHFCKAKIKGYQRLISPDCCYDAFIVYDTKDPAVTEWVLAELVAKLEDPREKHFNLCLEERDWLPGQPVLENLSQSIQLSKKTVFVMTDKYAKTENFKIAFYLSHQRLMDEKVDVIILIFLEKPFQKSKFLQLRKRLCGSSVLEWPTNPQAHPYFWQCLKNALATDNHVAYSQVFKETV
How it was run: as §1

| SMILES | pIC50 (human TLR8) | pIC50 (human TLR9) | pIC50 (human TLR7) |
| --- | --- | --- | --- |
| CC(C)c1c(-c2ccc(C#N)c3ncccc23)[nH]c2ccc(C3CCN(CC(=O)N(C)C)CC3)cc12 [Example 370, 2-(4-(2-(8-cyanoquinolin-5-yl)-3-isopropyl-1H-indol-5-yl)piperidin-1-yl)-N,N-dimethylacetamide] | > 7.00 | 4.30 to 6.00 | > 7.00 |
| Cc1nc2c(C)cc(-c3[nH]c4ccc(C5CCN(C(=O)CN(C)C)CC5)cc4c3C(C)C)cn2c1C [Example 527, 2-(dimethylamino)-1-(4-(3-isopropyl-2-(2,3,8-trimethylimidazo[1,2-a]pyridin-6-yl)-1H-indol-5-yl)piperidin-1-yl)ethan-1-one] | 6.00 to 7.00 | 6.00 to 7.00 | > 7.00 |
| CNC(=O)CN1CCC(c2ccc3[nH]c(-c4cc(C)n5nccc5c4)c(C(C)C)c3c2)CC1 [Example 443, 2-(4-(3-isopropyl-2-(7-methylpyrazolo[1,5-a]pyridin-5-yl)-1H-indol-5-yl)piperidin-1-yl)-N-methylacetamide] | > 7.00 | 4.30 to 6.00 | > 7.00 |
| CCc1c(-c2ccnc3[nH]ncc23)[nH]c2ccc(C3CCN(Cc4nc(C)oc4C)CC3)cc12 [Example 898, 4-((4-(3-ethyl-2-(1H-pyrazolo[3,4-b]pyridin-4-yl)-1H-indol-5-yl)piperidin-1-yl)methyl)-2,5-dimethyloxazole] | > 7.00 | 4.30 to 6.00 | 6.00 to 7.00 |
| CCc1c(-c2ccnc3[nH]ncc23)[nH]c2ccc(C3CCN(CCN)CC3)cc12 [Example 656, 2-(4-(3-ethyl-2-(1H-pyrazolo[3,4-b]pyridin-4-yl)-1H-indol-5-yl)piperidin-1-yl)ethan-1-amine] | > 7.00 | 6.00 to 7.00 | > 7.00 |
| CC(C)c1c(-c2ccnc3[nH]ncc23)[nH]c2ccc(C3CCN(Cc4ccc(N5CCOCC5)cc4)CC3)cc12 [Example 912, 4-(4-((4-(3-isopropyl-2-(1H-pyrazolo[3,4-b]pyridin-4-yl)-1H-indol-5-yl)piperidin-1-yl)methyl)phenyl)morpholine] | > 7.00 | 6.00 to 7.00 | > 7.00 |
| CCc1c(-c2ccnc3[nH]ncc23)[nH]c2ccc(C3CCN(Cc4cscn4)CC3)cc12 [Example 927, 4-((4-(3-ethyl-2-(1H-pyrazolo[3,4-b]pyridin-4-yl)-1H-indol-5-yl)piperidin-1-yl)methyl)thiazole] | > 7.00 | 4.30 to 6.00 | > 7.00 |

Other lines, results leading:

| pIC50 (human TLR8) | pIC50 (human TLR9) | pIC50 (human TLR7) | SMILES |
| --- | --- | --- | --- |
| < 5.51 | 4.30 to 6.00 | 6.00 to 7.00 | COc1nc(-c2[nH]c3ccc(C4CCNCC4)cc3c2C(C)C)cn2ncnc12 [Example 47, 6-(3-isopropyl-5-(piperidin-4-yl)-1H-indol-2-yl)-8-methoxy-[1,2,4]triazolo[1,5-a]pyrazine] |
| > 7.00 | 6.00 to 7.00 | > 7.00 | CC(C)c1c(-c2ccnc3[nH]ncc23)[nH]c2ccc(C3CCN(C4CCNCC4F)CC3)cc12 (stereo not drawn) [Example 827, 4-(5-(3′-fluoro-[1,4′-bipiperidin]-4-yl)-3-isopropyl-1H-indol-2-yl)-1H-pyrazolo[3,4-b]pyridine] |
| 6.00 to 7.00 | 4.30 to 6.00 | 6.00 to 7.00 | Cc1cc(-c2[nH]c3ccc(C4CCN(C5COC5)CC4)cc3c2C(C)C)cc2nccn12 [Example 711, 7-(3-isopropyl-5-(1-(oxetan-3-yl)piperidin-4-yl)-1H-indol-2-yl)-5-methylimidazo[1,2-a]pyridine] |
| < 5.51 | 4.30 to 6.00 | 4.30 to 6.00 | CC(C)c1c(-c2cn3cnnc3c(O)n2)[nH]c2ccc(C3CCNCC3)cc12 [Example 34, 6-(3-isopropyl-5-(piperidin-4-yl)-1H-indol-2-yl)-[1,2,4]triazolo[4,3-a]pyrazin-8-ol] |
| > 7.00 | 4.30 to 6.00 | > 7.00 | CCOc1cc(-c2[nH]c3ccc(C4CCN(CC(=O)N(C)C)CC4)cc3c2C(C)C)cc2ncnn12 [Example 350, 2-(4-(2-(5-ethoxy-[1,2,4]triazolo[1,5-a]pyridin-7-yl)-3-isopropyl-1H-indol-5-yl)piperidin-1-yl)-N,N-dimethylacetamide] |
| 6.00 to 7.00 | 4.30 to 6.00 | > 7.00 | CNC(=O)CN1CCC(c2ccc3[nH]c(-c4ccc(C)n5ncnc45)c(C(C)C)c3c2)CC1 [Example 386, 2-(4-(3-isopropyl-2-(5-methyl-[1,2,4]triazolo[1,5-a]pyridin-8-yl)-1H-indol-5-yl)piperidin-1-yl)-N-methylacetamide] |
| > 7.00 | 4.30 to 6.00 | > 7.00 | CCCN1CCC(c2ccc3[nH]c(-c4ccc5c(c4)COC5=O)c(C(C)C)c3c2)CC1 [Example 953, 5-(3-isopropyl-5-(1-propylpiperidin-4-yl)-1H-indol-2-yl)isobenzofuran-1(3H)-one] |
| 6.00 to 7.00 | 6.00 to 7.00 | 6.00 to 7.00 | CCc1c(-c2cnc3cn[nH]c3c2)[nH]c2ccc(C3CCNCC3)cc12 [Example 62, 6-(3-ethyl-5-(piperidin-4-yl)-1H-indol-2-yl)-1H-pyrazolo[4,3-b]pyridine] |
